Results reported in US20210100834A1, “COMPOSITION CONTAINING A CHLORIDE SALT FOR USE IN PREGNANT ANIMALS” (Nutreco IP Assets B.V., priority 2017, published 2021).

Test system: pregnant sows
Assay: Drinking water treatment of pregnant sows with calcium chloride and phosphoric acid, perinatal phenomena
Type: in vivo
Method: In another experiment, cations and anions were added to drinking water in such a balance, that the daily cation/anion balance of diet plus drinking water was reduced. For this, the drinking water contained 1.5 g calcium chloride per liter. […] In this experiment, next to the calcium chloride to reduce the daily cation/anion balance, a calcium binder (phosphoric acid, PhA)) was added in a concentration of 0.01 mol/liter.
It is believed that binding of dietary calcium in the gut and the inherent effect of reducing the amount of calcium available to the animal has as a consequence that the animal is triggered to mobilise calcium from its own mineral reserves in the bones. Therefore, when demand for calcium is increased as in parturition, the animal is more prepared to face this demand, and better equipped to maintain blood Ca levels.

For `O=P(O)(O)O` [PhA, phosphoric acid], the Postnatal mortality (in vivo) was 9.4%, the “effect of addition of calcium binder on perinatal mortality” value (in vivo) was “no negative effect” and the “Piglets with colostrum intake <250 g/24 h” value (treated drinking water) was 15.1%. For the same compound, the “Average colostrum intake per piglet” value (treated drinking water, calculated from weight gain) was 408 g/24 h.
